Test results taken from ChEMBL document CHEMBL1123772, “2,4-Diamino-6,7-dimethoxyquinazolines. 2. 2-(4-Carbamoylpiperidino) derivatives as alpha 1-adrenoceptor antagonists and antihypertensive agents” (J Med Chem, 1987).
Active and inactive are the calls of the source. The rule behind the calls is not given here.

Key:
[1] = biological target: T1, Adrenergic receptor alpha-1 (Rattus norvegicus, UniProt P15823+P23944+P43140); test: In vitro binding affinity determined for alpha-1 adrenergic receptor by the displacement of [3H]- prazosin.; format: protein assay
T1 sequence (P15823 whole entry): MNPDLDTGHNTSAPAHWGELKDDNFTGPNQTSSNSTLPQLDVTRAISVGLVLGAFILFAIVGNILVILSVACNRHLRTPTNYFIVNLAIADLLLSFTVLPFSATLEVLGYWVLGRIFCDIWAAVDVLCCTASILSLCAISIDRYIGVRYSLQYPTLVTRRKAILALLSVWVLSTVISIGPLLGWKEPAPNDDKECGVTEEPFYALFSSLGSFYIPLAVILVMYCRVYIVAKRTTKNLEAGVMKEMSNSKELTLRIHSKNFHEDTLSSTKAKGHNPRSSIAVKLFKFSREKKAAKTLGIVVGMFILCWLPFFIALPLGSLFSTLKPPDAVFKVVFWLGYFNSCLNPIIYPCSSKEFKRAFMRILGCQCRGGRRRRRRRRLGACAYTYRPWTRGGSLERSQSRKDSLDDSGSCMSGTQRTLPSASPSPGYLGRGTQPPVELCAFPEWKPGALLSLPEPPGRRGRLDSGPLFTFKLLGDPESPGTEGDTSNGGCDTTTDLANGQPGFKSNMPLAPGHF
T1 sequence (P23944 whole entry): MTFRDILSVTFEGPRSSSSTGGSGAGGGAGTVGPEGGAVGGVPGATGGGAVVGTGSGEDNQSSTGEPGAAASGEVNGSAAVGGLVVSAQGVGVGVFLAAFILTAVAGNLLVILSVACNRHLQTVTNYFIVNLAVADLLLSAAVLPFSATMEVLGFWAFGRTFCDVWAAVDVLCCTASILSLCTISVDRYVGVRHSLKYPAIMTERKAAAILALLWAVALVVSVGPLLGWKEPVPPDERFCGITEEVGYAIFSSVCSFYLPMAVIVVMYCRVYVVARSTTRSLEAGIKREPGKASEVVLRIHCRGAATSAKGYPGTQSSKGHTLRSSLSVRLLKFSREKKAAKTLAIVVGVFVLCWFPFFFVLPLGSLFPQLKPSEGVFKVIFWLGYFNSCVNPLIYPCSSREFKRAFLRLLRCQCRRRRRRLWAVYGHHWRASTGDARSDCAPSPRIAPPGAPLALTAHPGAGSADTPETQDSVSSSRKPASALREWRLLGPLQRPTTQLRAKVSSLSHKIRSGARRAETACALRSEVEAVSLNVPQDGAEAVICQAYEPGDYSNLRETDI
T1 sequence (P43140 whole entry): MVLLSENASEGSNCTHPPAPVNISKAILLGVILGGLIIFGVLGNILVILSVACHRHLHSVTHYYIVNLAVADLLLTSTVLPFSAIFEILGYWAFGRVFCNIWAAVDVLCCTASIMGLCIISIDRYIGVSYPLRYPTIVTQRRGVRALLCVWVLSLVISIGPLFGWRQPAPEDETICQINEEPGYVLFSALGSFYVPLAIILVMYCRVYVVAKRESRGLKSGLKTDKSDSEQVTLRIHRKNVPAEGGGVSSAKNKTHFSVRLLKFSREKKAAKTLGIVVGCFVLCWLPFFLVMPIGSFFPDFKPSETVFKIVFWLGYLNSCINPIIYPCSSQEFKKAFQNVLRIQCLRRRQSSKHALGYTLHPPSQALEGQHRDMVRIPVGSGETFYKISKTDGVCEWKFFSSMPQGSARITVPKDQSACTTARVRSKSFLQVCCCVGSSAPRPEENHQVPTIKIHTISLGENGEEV

[2] = system: Adrenergic receptor alpha-2 (Oryctolagus cuniculus); test: Competitive antagonist activity of the pre junctional alpha-2 adrenergic receptor mediated vasoconstrictor action of norepinephrine expressed as concentration producing 40% reduction in contractile response at 10e-5 M; No activity
[3] = biological target: Adrenergic receptor alpha; test: Tested for functional alpha-antagonist activity against norepinephrine in rabbit aorta and pulmonary artery.; format: tissue-based, Oryctolagus cuniculus
[4] = system: Adrenergic receptor alpha-1 (Oryctolagus cuniculus)
[5] = biological target: Adrenergic receptor alpha-2 (Rattus norvegicus) (UniProt P22086+P19328+P22909); test: In vitro binding affinity determined for alpha-2 adrenergic receptor by the percentage displacement of [3H]- clonidine at 10e-6 M; Not active :Less than 50% activity.; format: protein assay
Rattus norvegicus = test: Antihypertensive activity determined in spontaneously hypertensive rats(SHR) by percent reduction in blood pressure at 5 mg/kg peroral administration at 4 hour; format: functional; conditions: route oral

Row | Compound | Ki [1] | Displacement [5] | further results
1 | CCCCNC(=O)CCC1CCN(c2nc(N)c3cc(OC)c(OC)cc3n2)CC1 | 0.47 nM |  | 
2 | CCN(CC)C(=O)C1CCCN(c2nc(N)c3cc(OC)c(OC)cc3n2)C1 (centres undefined) | 116.73 nM | < 50% | Reduction (Rattus norvegicus): 16%
3 | COc1cc2nc(N3CCC(C(=O)NCc4ccccc4)CC3)nc(N)c2cc1OC | 0.22 nM |  | 
4 | CCCCNC(=O)C1CCCN(c2nc(N)c3cc(OC)c(OC)cc3n2)C1 (centres undefined) | 8.25 nM | < 50% | 
5 | CCCCNC(=O)CC1CCN(c2nc(N)c3cc(OC)c(OC)cc3n2)CC1 | 1.4 nM |  | 
6 | CCCNC(=O)CC1CCN(c2nc(N)c3cc(OC)c(OC)cc3n2)CC1 | 0.65 nM |  | EC40 [2]: inactive; pA2 [3]: 7.42; EC40 [4]: 18 nM
7 | CCCCNC(=O)C1CCN(c2nc(N)c3cc(OC)c(OC)cc3n2)CC1 | 0.67 nM |  | 
8 | COc1cc2nc(N3CCC(C(=O)N(C)Cc4ccccc4)CC3)nc(N)c2cc1OC | 0.2 nM |  | 
9 | COc1cc2nc(N3CCC(C(=O)NCCc4ccccc4)CC3)nc(N)c2cc1OC | 0.1 nM |  | 
10 | COCCNC(=O)C1CCN(c2nc(N)c3cc(OC)c(OC)cc3n2)CC1 | 1.13 nM | < 50% | 
11 | CCCCNC(=O)COC1CCN(c2nc(N)c3cc(OC)c(OC)cc3n2)CC1 | 0.79 nM |  | 
12 | CCN(CC)C(=O)C1CCN(c2nc(N)c3cc(OC)c(OC)cc3n2)CC1 | 1.11 nM | < 50% | 
13 | COc1cc2nc(N3CCC(C(=O)N4CCOCC4)CC3)nc(N)c2cc1OC | 1.14 nM | < 50% | 
14 | CCNC(=O)C1CCN(c2nc(N)c3cc(OC)c(OC)cc3n2)CC1 | 1.64 nM | < 50% | 

Second part, led by results:

Row | Ki [1] | Displacement [5] | Compound | further results
15 | 1.08 nM |  | COc1cc2nc(N3CCC(CC(=O)NCC4CC4)CC3)nc(N)c2cc1OC | EC40 [2]: inactive; pA2 [3]: 7.25; EC40 [4]: 97 nM
16 | 1.46 nM |  | COc1cc2nc(N3CCC(C(N)=O)CC3)nc(N)c2cc1OC | 
17 | 0.42 nM |  | COc1cc2nc(N3CCC(C(=O)NCCOc4ccccc4)CC3)nc(N)c2cc1OC | 
18 | 0.63 nM | < 50% | COc1cc2nc(N3CCC(C(=O)NC4CCCC4)CC3)nc(N)c2cc1OC | 
19 | 0.9 nM | < 50% | COc1cc2nc(N3CCC(C(=O)NCC4CC4)CC3)nc(N)c2cc1OC | 
20 | 0.47 nM | < 50% | COc1cc2nc(N3CCC(C(=O)Nc4ccccc4)CC3)nc(N)c2cc1OC | 
21 | 1.73 nM | < 50% | COc1cc2nc(N3CCC(C(=O)NCCO)CC3)nc(N)c2cc1OC | Reduction (Rattus norvegicus): 5%
